Experimental data from ChEMBL document CHEMBL1201862, “PubChem BioAssay data set” (2004).
Activity calls are given as the source filed them.

Key:
[1] = target: Ubiquitin carboxyl-terminal hydrolase BAP1 (Homo sapiens, UniProt Q92560); assay: inhibition of BAP1 ubiquitin hydrolase activity – biochemical, dose response (AID 714); type: functional
[2] = target: Delta-type opioid receptor (Homo sapiens, UniProt P41143); assay: Counterscreen for agonists of heterodimerization of the mu 1 (OPRM1) and delta 1 (OPRD1) opioid receptors: Luminescence-based cell-based high throughput dose response assay to identify agonists of OPRD1 homodimerization. [Related pubchem assays (depositor defined):AID504326, AID504355, AID504692, AID504904, AID504905]; type: functional
Mu-type opioid receptor = Mu-type opioid receptor (Homo sapiens, UniProt P35372); assay: Counterscreen for agonists of heterodimerization of the mu 1 (OPRM1) and delta 1 (OPRD1) opioid receptors: Luminescence-based cell-based high throughput dose response assay to identify agonists of OPRM1 homodimerization.; type: functional;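 also: U2OS cells expressing OPRM1 and beta-arrestin as split beta-galactosidase partners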
[3] = target: 5-hydroxytryptamine receptor 5A (Homo sapiens, UniProt P47898); assay: Counterscreen for agonists of OPRM1-OPRD1 heterodimerization: luminescence-based cell-based high throughput dose response assay to identify agonists of 5-hydroxytryptamine (serotonin) 5A receptor (HTR5A). [Related pubchem assays (depositor defined):AID504326, AID504355, AID504692, AID504904, AID504905]; type: functional
[4] = Fluorescence-based cell-based high throughput dose response assay for inhibitors of the interaction of nucleotide-binding oligomerization domain containing 2 (NOD2) and the receptor-interacting serine-threonine kinase 2 (RIPK2).; type: functional; details: Homo sapiens
Beta Lactamase = Beta Lactamase (Pseudomonas aeruginosa, UniProt Q932Y6); assay: BLA reporter interference, concentration series – BLA reporter cells, FRET fluorescence, artefact control for NOD2-RIPK2 interaction inhibitor project, dose response (AID 651552); type: functional, cell-based
[5] = activation of miR-122 Renilla sensor silencing – cell-based, Huh7 psiCHECK-miR122, Renilla luciferase, cherry-picked, dose response (AID 651956); type: functional;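 also: huh7 hepatoma cells stably carrying a psiCHECK-2 miR-122 sensor plasmid; renilla luciferase signal reporting endogenous miR-122 activity after 48 h compound exposure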
[6] = viability loss in HeLa cells – cytotoxicity control for MgcRacGAP inhibitor project, dose response (AID 624300); type: functional
[7] = target: T1, Rac GTPase-activating protein 1 (Homo sapiens, UniProt Q9H0H5); assay: blockers of MgcRacGAP-driven Rac1 GTP hydrolysis – biochemical, ADP Hunter fluorescence, primary and confirmatory, confirmation (AID 624330); type: functional
T1 sequence (Q9H0H5 whole entry): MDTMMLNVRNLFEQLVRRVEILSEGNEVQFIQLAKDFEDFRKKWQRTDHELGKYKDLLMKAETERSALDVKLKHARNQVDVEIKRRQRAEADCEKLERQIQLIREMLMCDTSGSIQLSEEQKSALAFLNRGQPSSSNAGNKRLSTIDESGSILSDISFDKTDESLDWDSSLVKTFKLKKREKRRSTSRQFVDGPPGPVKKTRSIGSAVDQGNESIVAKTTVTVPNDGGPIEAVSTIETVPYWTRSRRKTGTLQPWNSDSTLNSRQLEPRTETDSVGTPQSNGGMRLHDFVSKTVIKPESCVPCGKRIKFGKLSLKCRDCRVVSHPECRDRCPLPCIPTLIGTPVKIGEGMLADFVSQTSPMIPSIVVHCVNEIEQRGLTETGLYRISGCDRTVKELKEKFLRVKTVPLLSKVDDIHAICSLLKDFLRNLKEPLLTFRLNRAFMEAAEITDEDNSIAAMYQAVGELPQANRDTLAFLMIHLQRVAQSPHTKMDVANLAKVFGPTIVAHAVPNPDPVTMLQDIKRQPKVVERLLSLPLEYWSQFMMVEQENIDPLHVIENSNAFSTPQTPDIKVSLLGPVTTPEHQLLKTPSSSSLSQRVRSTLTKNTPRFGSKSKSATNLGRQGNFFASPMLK

[8] = target: E3 ubiquitin-protein ligase UHRF1 (Homo sapiens, UniProt Q96T88); assay: Counterscreen for inhibitors of 5-meCpG-binding domain protein 2 (MBD2): TRFRET-based biochemical high throughput dose response assay to identify inhibitors of binding of ubiquitin-like with PHD and ring finger domains 1 (UHRF1) to methylated oligonucleotide.
[9] = general mammalian cell viability loss – inhibitor set, cherry-pick, set 2, cytotoxicity control for miR-122 modulator project, dose response (AID 720697); type: functional, cell-based
Paired box protein Pax-8 = Paired box protein Pax-8 (Homo sapiens, UniProt Q06710); assay: PAX8 transcriptional activity inhibition in RMG-I – RMG-I cells, luciferase, cherry-pick, dose response (AID 687027); type: functional, cell-based;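 also: luciferase reporter driven by Pax8 target thyroperoxidase promoter measured by SteadyGlo luminescence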
[10] = OVCAR-3 cell viability loss – plate reader, dry powder samples, PAX8 inhibitor project, dose response (AID 743044); type: functional, cell-based
[11] = IGROV1 cell killing – plate reader, dry powder samples, PAX8 inhibitor project, dose response (AID 743043); type: functional, cell-based; details: IGROV-1
[12] = OVCAR8 cell viability loss – plate reader, dry powder samples, PAX8 project, dose response (AID 743197); type: functional, cell-based; details: OVCAR-8
[13] = glucagon-like peptide-1 release potency in STC-1, concentration-response, half-maximal inhibitory concentration in the STC-1 line (AID 1117345); type: functional, cell-based
[14] = Potency on glucagon-like peptide 1 release, dose-response in NCI-H716 cell line, half maximal inhibitory concentration (AID 1117344); type: functional, cell-based
[15] = target: RNA-editing ligase 1, mitochondrial (Trypanosoma brucei brucei, UniProt P86926); assay: inhibition of trypanosome RNA editing ligase – biochemical, fluorescence, Trypanosoma brucei, dose response (AID 1117295); type: functional
[16] = Dd2 parasite growth inhibition in erythrocytes – SYBR Green, dry powder samples, set 9, dose response (AID 1159568); type: functional, cell-based
[17] = inhibitors of TRPM1-promoter reporter in SK-MEL-5 – cell-based, luciferase, dry powder, set 9, MITF inhibitor project, dose response (AID 651588); type: functional
[18] = MITF Orthogonal Assay: MALME3 CTG Assay Measured in Cell-Based System Using Plate Reader - 2084-04_Inhibitor_Dose_DryPowder_Activity_Set6.; type: functional; details: MALME-3
[19] = growth inhibition of SK-MEL-5 melanoma cells – cell-based, CellTiter-Glo luminescence, dry powder, set 8, orthogonal assay for MITF inhibitor project, dose response (AID 651586); type: functional
[20] = growth inhibition of MALME3 cells – cell-based, CellTiter-Glo luminescence, dry powder, set 5, orthogonal assay for MITF inhibitor project, dose response (AID 651584); type: functional; details: MALME-3
[21] = MITF Orthogonal Assay: SK-MEL-5 CTG Assay Measured in Cell-Based System Using Plate Reader - 2084-02_Inhibitor_Dose_DryPowder_Activity_Set7.; type: functional
[22] = MITF: Counter assay: A375 proliferation Measured in Cell-Based System Using Plate Reader - 2084-03_Inhibitor_Dose_DryPowder_Activity_Set8.; type: functional; details: A-375
[23] = cytotoxicity in MITF-independent A375 cells – cell-based, CellTiter-Glo luminescence, dry powder, set 9, counter-screen for MITF modulator project, dose response (AID 651591); type: functional; details: A-375
[24] = inhibitors of TRPM1-promoter reporter in SK-MEL-5 – cell-based, luciferase, dry powder, set 8, MITF inhibitor project, dose response (AID 624430); type: functional
[25] = IC50 of insulin release inhibition, rat insulinoma INS-1E line, 5 mM glucose, cell-based (AID 1117331); type: functional
cells = type: functional, cell-based; details: INS-1E

Chain of Mu-type opioid receptor (P35372 whole entry): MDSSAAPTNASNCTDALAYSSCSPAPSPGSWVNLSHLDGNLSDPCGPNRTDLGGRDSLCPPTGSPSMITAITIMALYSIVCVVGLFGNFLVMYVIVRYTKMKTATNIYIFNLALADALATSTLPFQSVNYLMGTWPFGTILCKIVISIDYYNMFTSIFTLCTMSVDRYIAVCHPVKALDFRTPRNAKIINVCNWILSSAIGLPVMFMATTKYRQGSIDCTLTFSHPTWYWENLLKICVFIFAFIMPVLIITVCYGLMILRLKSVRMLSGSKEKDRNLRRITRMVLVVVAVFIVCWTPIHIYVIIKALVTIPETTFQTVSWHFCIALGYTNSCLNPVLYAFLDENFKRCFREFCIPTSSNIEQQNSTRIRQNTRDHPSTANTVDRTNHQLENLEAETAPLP
Chain of 5-hydroxytryptamine receptor 5A (P47898 whole entry, the tested form may be a part): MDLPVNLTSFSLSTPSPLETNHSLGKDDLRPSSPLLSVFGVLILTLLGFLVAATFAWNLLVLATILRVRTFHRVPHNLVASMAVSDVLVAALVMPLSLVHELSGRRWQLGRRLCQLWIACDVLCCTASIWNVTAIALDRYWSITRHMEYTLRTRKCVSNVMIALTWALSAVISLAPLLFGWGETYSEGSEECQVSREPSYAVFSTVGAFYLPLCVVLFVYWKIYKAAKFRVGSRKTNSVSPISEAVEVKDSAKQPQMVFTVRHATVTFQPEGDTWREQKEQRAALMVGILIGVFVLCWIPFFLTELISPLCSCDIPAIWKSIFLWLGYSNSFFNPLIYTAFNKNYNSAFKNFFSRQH
Chain of Ubiquitin carboxyl-terminal hydrolase BAP1 (Q92560 whole entry): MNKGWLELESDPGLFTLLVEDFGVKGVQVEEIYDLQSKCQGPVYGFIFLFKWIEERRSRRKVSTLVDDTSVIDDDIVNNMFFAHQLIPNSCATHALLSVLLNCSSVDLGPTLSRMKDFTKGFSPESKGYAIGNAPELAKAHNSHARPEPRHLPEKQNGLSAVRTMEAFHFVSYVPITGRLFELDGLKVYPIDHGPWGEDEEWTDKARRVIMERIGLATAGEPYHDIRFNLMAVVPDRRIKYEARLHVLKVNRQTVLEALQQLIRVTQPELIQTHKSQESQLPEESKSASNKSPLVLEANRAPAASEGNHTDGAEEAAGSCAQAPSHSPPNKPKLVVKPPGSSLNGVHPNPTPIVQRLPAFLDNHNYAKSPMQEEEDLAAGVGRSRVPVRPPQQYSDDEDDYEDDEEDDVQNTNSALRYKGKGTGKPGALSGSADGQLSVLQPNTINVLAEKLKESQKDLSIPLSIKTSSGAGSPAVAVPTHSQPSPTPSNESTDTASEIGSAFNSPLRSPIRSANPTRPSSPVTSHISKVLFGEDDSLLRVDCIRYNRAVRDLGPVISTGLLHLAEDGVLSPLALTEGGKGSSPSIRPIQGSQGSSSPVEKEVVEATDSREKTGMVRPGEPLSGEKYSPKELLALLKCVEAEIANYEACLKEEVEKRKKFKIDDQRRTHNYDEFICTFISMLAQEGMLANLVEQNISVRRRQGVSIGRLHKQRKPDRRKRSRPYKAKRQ
Chain of Paired box protein Pax-8 (Q06710 whole entry): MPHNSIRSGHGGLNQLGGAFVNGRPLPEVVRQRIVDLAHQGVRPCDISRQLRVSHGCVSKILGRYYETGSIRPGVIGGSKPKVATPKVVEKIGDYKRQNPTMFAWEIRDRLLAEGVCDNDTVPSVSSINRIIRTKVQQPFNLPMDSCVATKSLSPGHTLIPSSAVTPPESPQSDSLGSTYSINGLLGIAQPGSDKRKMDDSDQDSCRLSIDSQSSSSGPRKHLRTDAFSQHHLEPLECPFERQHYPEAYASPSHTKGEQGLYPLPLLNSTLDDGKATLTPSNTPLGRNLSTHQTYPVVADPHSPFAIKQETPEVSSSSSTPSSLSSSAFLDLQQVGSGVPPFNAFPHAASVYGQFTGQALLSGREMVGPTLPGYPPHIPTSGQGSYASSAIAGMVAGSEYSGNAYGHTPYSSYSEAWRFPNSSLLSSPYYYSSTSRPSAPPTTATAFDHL
Chain of E3 ubiquitin-protein ligase UHRF1 (Q96T88 whole entry, the tested form may be a part): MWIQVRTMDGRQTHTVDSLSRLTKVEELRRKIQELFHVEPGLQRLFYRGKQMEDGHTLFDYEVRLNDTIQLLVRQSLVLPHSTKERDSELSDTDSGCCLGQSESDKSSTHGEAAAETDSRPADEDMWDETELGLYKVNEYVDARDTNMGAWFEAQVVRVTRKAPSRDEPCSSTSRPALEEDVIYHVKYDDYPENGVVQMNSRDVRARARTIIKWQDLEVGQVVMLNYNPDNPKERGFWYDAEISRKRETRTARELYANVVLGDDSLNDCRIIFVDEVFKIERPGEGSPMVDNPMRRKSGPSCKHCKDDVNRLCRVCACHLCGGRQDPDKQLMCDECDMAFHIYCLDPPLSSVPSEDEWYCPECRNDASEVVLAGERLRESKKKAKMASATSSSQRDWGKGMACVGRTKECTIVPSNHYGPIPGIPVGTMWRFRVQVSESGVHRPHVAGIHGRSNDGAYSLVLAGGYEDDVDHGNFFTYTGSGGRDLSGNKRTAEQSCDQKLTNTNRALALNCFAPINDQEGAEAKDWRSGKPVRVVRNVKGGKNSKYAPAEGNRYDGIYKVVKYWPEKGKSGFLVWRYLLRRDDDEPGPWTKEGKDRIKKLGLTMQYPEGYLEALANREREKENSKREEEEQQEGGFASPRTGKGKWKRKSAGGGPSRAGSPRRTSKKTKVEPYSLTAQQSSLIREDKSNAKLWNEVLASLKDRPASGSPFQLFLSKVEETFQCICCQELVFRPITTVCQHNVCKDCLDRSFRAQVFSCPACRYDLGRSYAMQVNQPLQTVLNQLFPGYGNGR
Chain of Beta Lactamase (Q932Y6 whole entry): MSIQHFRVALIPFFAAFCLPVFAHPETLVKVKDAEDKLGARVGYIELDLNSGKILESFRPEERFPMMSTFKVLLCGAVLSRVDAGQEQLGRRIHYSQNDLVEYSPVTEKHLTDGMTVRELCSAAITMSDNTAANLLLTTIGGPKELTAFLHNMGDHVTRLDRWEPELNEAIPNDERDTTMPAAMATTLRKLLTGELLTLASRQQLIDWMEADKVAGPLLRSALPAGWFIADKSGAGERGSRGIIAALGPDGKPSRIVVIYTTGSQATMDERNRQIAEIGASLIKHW
Chain of Delta-type opioid receptor (P41143 whole entry): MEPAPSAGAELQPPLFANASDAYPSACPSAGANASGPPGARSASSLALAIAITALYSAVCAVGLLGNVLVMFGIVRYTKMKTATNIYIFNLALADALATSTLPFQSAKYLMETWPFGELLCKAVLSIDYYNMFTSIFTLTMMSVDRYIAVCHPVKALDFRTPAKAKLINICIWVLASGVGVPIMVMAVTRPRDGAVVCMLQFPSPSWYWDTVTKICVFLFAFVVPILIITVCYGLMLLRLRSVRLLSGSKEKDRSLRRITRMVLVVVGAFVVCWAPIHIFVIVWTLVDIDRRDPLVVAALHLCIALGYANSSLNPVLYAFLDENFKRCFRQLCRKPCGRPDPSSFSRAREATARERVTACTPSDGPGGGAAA
Chain of RNA-editing ligase 1, mitochondrial (P86926 whole entry): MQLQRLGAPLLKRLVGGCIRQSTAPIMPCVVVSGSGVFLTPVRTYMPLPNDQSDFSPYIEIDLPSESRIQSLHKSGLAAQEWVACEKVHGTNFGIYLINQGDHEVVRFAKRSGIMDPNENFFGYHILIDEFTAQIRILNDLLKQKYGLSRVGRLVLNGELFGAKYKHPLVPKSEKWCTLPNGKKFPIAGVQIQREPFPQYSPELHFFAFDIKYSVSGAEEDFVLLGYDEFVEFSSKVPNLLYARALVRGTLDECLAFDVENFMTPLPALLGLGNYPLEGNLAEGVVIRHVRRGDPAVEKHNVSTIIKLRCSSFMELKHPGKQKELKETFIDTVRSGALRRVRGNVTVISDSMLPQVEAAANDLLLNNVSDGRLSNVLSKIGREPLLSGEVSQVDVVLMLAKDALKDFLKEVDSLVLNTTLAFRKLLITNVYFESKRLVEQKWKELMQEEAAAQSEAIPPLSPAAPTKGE

Nc1c(C(O)(C(F)(F)F)C(F)(F)F)ccc2ccccc12
IC50 [1]: > 50 µM (not active)

Cc1cc2[nH]c3c4ccccc4nc(C)c3c2cc1C
EC50 [2]: > 92.4 µM (inactive) | EC50 (Mu-type opioid receptor): > 92.4 µM (inactive) | EC50 [3]: > 92.4 µM (inactive) | IC50 [4]: 15.5 µM (inactive) | IC50 (Beta Lactamase): 23.6 µM (inactive) | AC50 [5]: 10.8 µM (active) | CC50 [6]: 12.4 µM (active) | IC50 [7]: 38.9 µM (active) | IC50 [8]: 19 µM (inactive) | AC50 [9]: 3.57 µM (active)

COc1ccc(CN(C)C[C@H]2OCCCC[C@H](C)Oc3ccc(NC(=O)Nc4ccc(C(F)(F)F)cc4)cc3C(=O)N([C@H](C)CO)C[C@H]2C)cc1
AC50 (Paired box protein Pax-8): 9.16 µM (active) | AC50 [10]: 26.4 µM (active) | AC50 [11]: 54.7 µM (active) | AC50 [12]: 59 µM (active)

NC[C@@H]1O[C@H](O[C@H]2[C@H](O)[C@H](O[C@H]3[C@@H](O)[C@H](N)C[C@H](N)[C@H]3O[C@H]3O[C@H](CN)[C@H](O)[C@H](O)[C@H]3N)O[C@@H]2CO)[C@@H](N)[C@@H](O)[C@@H]1O
IC50 [13]: > 40 µM (inactive) | IC50 [14]: > 40 µM (inactive)

COC(=O)C1=C(C)N(Cc2cccc(C(F)(F)F)c2)C(NCc2ccccc2)=NC1c1ccccc1C(F)(F)F (centres undefined)
IC50 [15]: > 96.6 µM (inactive)

Cc1ccccc1-c1ccc([C@@H]2[C@H](CO)N3CCCCN(S(=O)(=O)Cc4ccccc4)C[C@@H]23)cc1
AC50 [16]: 0.878 µM (active)

O=C1C(Nc2ccc(F)cc2)=C(N2CCCCC2)C(=O)c2ccccc21
AC50 [17]: 8.63 µM (active) | AC50 [18]: 14.1 µM (active) | AC50 [19]: 25.8 µM (active) | AC50 [20]: 14.1 µM (active) | AC50 [21]: 8.64 µM (active) | AC50 [22]: 57.6 µM (active) | AC50 [23]: 27.4 µM (active) | AC50 [24]: 2.24 µM (active)

Oc1ccc(CCNCCCCCCNCCc2ccccc2)cc1O [DOPEXAMINE]
IC50 [25]: > 33.3 µM (inactive) | IC50 (cells): > 33.3 µM (inactive)
